In ChEMBL document CHEMBL3758158, “Discovery of 2-azetidinone and 1H-pyrrole-2,5-dione derivatives containing sulfonamide group at the side chain as potential cholesterol absorption inhibitors” (Bioorg Med Chem Lett, 2016):
Activity calls are given as the source filed them. The rule behind the calls is not given here.

Experiments:
[1] = system: Hamster; assay: Effect on total cholesterol level in cholesterol fed hamster liver at 50 mg/kg/day, po administered for 7 days measured on day 7 post last dose; format: ADME, organism-based; conditions: cricetinae, in vivo, 168 h
[2] = Octanol-water partition coefficient, logP of the compound by HPLC analysis; format: physicochemical
[3] = system: Hamster; assay: Effect on triglyceride level in cholesterol fed hamster liver at 50 mg/kg/day, po administered for 7 days measured on day 7 post last dose; format: ADME, organism-based; conditions: cricetinae, in vivo, 168 h
[4] = biological target: T1, NPC1-like intracellular cholesterol transporter 1 (Homo sapiens) (UniProt Q9UHC9); assay: Inhibition of niemann pick C1-like protein-1 in human Caco-2 cells assessed as cholesterol uptake at 100 uM after 24 hrs by HPLC analysis; format: cell-based
T1 sequence (whole entry): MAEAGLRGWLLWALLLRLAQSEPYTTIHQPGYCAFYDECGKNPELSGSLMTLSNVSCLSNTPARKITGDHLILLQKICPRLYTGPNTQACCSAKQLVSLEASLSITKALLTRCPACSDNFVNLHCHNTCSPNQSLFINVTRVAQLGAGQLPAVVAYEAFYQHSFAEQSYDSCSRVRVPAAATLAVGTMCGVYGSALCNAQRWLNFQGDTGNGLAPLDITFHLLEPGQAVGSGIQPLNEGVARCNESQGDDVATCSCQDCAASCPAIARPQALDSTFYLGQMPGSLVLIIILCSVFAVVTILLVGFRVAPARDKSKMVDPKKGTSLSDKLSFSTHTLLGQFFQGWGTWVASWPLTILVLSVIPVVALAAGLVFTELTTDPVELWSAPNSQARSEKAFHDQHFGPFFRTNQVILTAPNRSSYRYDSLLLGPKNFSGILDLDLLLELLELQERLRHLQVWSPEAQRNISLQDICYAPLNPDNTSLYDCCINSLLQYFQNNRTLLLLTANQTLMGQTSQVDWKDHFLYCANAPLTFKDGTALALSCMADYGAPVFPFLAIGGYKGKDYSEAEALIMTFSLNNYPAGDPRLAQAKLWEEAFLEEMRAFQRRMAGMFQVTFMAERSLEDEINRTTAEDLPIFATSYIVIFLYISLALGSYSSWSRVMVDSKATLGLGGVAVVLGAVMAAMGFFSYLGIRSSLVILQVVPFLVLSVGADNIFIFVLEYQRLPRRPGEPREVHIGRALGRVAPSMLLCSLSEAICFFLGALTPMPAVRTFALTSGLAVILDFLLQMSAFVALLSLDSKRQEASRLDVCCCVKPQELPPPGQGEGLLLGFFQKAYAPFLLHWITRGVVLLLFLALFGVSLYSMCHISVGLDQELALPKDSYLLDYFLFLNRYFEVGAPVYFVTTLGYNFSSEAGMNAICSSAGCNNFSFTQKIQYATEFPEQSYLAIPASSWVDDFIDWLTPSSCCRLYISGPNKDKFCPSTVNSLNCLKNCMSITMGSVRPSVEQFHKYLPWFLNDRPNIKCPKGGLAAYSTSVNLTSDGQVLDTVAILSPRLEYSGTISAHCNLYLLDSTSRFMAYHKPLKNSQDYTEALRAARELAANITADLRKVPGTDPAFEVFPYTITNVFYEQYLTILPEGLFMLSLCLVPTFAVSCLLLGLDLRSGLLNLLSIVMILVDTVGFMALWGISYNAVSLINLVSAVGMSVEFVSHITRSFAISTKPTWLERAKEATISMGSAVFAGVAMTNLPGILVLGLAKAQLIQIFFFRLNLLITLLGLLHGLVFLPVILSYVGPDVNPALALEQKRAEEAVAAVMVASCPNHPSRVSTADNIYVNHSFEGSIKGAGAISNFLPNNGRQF

[5] = system: Hamster; assay: Decrease in triglyceride level in serum of cholesterol fed hamster model at 50 mg/kg/day, po administered for 7 days measured on day 7 post last dose; format: functional, Cricetinae; design: scale not given: the % may be the effect or the level left
[6] = system: Hamster; assay: Decrease in free fatty acid level in serum of cholesterol fed hamster model at 50 mg/kg/day, po administered for 7 days measured on day 7 post last dose; format: functional, Cricetinae; design: scale not given: the % may be the effect or the level left
[7] = system: Hamster; assay: Increase in nitric oxide synthase level in serum of cholesterol fed hamster at 50 mg/kg/day, po administered for 7 days measured on day 7 post last dose; format: functional, organism-based; conditions: Cricetinae
[8] = system: Hamster; assay: Toxicity in cholesterol fed hamster model assessed as change in body weight at 50 mg/kg/day, po administered for 7 days measured during compound dosing; format: organism-based; conditions: cricetinae, in vivo, 168 h
[9] = Cytotoxicity against human GES-1 cells assessed as cell viability after 48 hrs by MTT assay; format: cell-based, GES1; conditions: read-out: LC50
[10] = system: Hamster; assay: Increase in proportion of high density lipoprotein cholesterol to total cholesterol in serum of cholesterol fed hamster at 50 mg/kg/day, po administered for 7 days measured on day 7 post last dose; format: functional, Cricetinae
[11] = system: Hamster; assay: Decrease in total cholesterol level in serum of cholesterol fed hamster model at 50 mg/kg/day, po administered for 7 days measured on day 7 post last dose; format: functional, Cricetinae; design: scale not given: the % may be the effect or the level left
[12] = Cytotoxicity against human HEK293 cells assessed as cell viability after 48 hrs by MTT assay; format: cell-based; conditions: read-out: LC50
[13] = system: Hamster; assay: Decrease in low density lipoprotein cholesterol level in serum of cholesterol fed hamster model at 50 mg/kg/day, po administered for 7 days measured on day 7 post last dose; format: functional, Cricetinae; design: scale not given: the % may be the effect or the level left
[14] = system: Hamster; assay: Increase in nitric oxide level in serum of cholesterol fed hamster at 50 mg/kg/day, po administered for 7 days measured on day 7 post last dose; format: functional, organism-based; conditions: Cricetinae
[15] = system: Hamster; assay: Toxicity in cholesterol fed hamster model assessed as decrease in body weight at 50 mg/kg/day, po administered for 7 days measured for 3 days during compound dosing; format: organism-based; conditions: cricetinae, in vivo, 72 h

SMILES | logP [2] | inhibition [4] | CC50 at 48 h [9] | CC50 at 48 h [12] | other results
Cc1ccc(N2C(=O)[C@H](CCCNS(=O)(=O)c3ccc(OC(F)(F)F)cc3)[C@H]2c2ccc(NS(C)(=O)=O)cc2)cc1 | 3.4 | 41.4% | > 100 µM | > 100 µM | Activity [1]: Non-toxic; Activity [3]: Non-toxic; Activity [5]: 25.3%; Activity [6]: 21.4%; Activity [7]: Active; Activity [8]: Non-toxic; Activity [10]: 42.9%; Activity [11]: 25.7%; Activity [13]: 17.8%; Activity [14]: Active
CCc1ccc(S(=O)(=O)NCCC[C@H]2C(=O)N(c3ccc(C)cc3)[C@@H]2c2ccc([N+](=O)[O-])cc2)cc1 | ≥ 4.4 | Active | > 100 µM | > 100 µM | 
Cc1ccc(N2C(=O)[C@H](CCCNS(=O)(=O)c3ccc(OC(F)(F)F)cc3)[C@H]2c2ccc([N+](=O)[O-])cc2)cc1 | ≥ 4.4 | 47.9% | 56.8 µM | > 100 µM | 
CCc1ccc(S(=O)(=O)NCCC[C@H]2C(=O)N(c3ccc(C)cc3)[C@@H]2c2ccc(NS(=O)(=O)c3ccc(C)cc3)cc2)cc1 | 3.4 | Active | 92.9 µM | 42.9 µM | 
O=C1C(c2ccc(O)cc2)=C(c2ccc(F)cc2)C(=O)N1CCCCNS(=O)(=O)c1ccc(C(F)(F)F)cc1 |  | Active |  |  | 
Cc1ccc(N2C(=O)[C@H](CCCNS(=O)(=O)c3cccs3)[C@H]2c2ccc([N+](=O)[O-])cc2)cc1 |  | Active |  |  | 
O=C1[C@H](CC[C@H](O)c2ccc(F)cc2)[C@@H](c2ccc(O)cc2)N1c1ccc(F)cc1 [EZETIMIBE] | 3.4 |  | 61.3 µM | 54.6 µM | Activity [5]: 36%; Activity [6]: 29.5%; Activity [15]: Toxic; Activity [10]: 56%; Activity [11]: 30.2%; Activity [13]: 24.8%
O=C1C(c2ccc(O)cc2)=C(c2ccc(F)cc2)C(=O)N1CCCCNS(=O)(=O)c1ccc(OC(F)(F)F)cc1 |  | Active |  |  | 
Cc1ccc(N2C(=O)[C@H](CCCNS(=O)(=O)c3ccc(OC(F)(F)F)cc3)[C@H]2c2ccc(NS(=O)(=O)c3ccc(C)cc3)cc2)cc1 | 3.4 | Active | > 100 µM | > 100 µM | 
CCc1ccc(S(=O)(=O)NCCC[C@H]2C(=O)N(c3ccc(C)cc3)[C@@H]2c2ccc(NS(C)(=O)=O)cc2)cc1 | 3.4 | Active | > 100 µM | > 100 µM | 
